Here are results for eleven molecules from patent US5340823A, “Organosilane derivatives, pharmaceutical compositions containing them and process for preparing same” (Richter Gedeon Vegyeszeti Gyar RT., priority 1990, dated 1994).

Like-named read-outs stand apart in the source and are kept apart here.

Data set [1] concerns GYKI-20039-induced tremor. Kind of data set: GYKI-20039-induced tremor test on mice. To be noted: for ED50: Mus musculus. The data set is classed as in vivo, mice (male CFLP). The procedure:
After administration of the test substance the mice were suspended on an isometric dynamometer in a light plastic box and the strength of the tremor was measured and quantified by electronic integration. The tremor strength of mice was averaged in the 4th-5th minutes following the treatment with 10 the test substance.
The animals were pretreated with various doses of the muscle relaxants to be tested before administration of the test substance. The time of pretreatment was 0 in intravenous examinations, whereas a pretreatment time of 10 minutes was used in oral investigations.
(§1) For the verification of the oral activity the tremor test was used on mice whereas the flexor reflex was investigated by using intraduodenal (i.d.) administration.

Data set [2] concerns Straub's tail. Kind of data set: Straub's tail test (morphine hydrochloride) on mice. The data set is classed as in vivo, mice (male OF-1). The settings on record: for ED50: Mus musculus, ip, read-out: Straub's tail ED50 i.p. The procedure: Method 2: Straub's tail test
The method of Novack [Drug Development Res. 2, 383 (1982)] was used with some modification. Groups consisting of 10 male OF-1 mice each weighing 19 to 21 g were intraperitoneally treated with 60 mg/kg of morphine hydrochloride. The formation (development) of Straub's stail was judged by 15 minutes after the morphine treatment. It was considered to be positive when the animal permanently kept his tail upwards in an angle being steeper than 45°. A pretreatment was carried out with various doses of the compound to be tested by 20 minutes before the time of reading. The ED50 value, i.e. the dose inhibiting the positive response in 50% of the animals, was calculated by using the method of Litchfield and Wilcoxon.
(The above author found a good correlation between the effectivity shown in this test method and the clinical effect of central muscle relaxants.)

The subject of data set [3] is flexor reflex. The data set is described as follows: Flexor reflex on anaesthetized cats. The data set is classed as in vivo. The procedure:
Method 3: Flexor reflex on anaesthetized cats
Chloralose-anaesthetized cats of both sexes weighing 2.2 to 5.4 kg each were used in these experiments. The flexor reflex of the animals was assessed by using the quantitative electromyographic method of Farkas et al. [Pharmacol. Res. Comm. 20, Suppl. 1, 141 (1988)].
[…] For characterization of duration of the effect the time (T75%) is shown, which passed after administration of this dose up to the return to 75% of the control value.
as §1

Data set [4] is described as follows: Acute toxicity and therapeutic ratio on mice. It counts as in vivo. The settings on record: mouse, in vivo; for selectivity ratio: mice, LD50 to tremor ED50. The procedure:
(§2) Method 4: Study on the acute toxicity
(§3) These experiments were carried out on groups consisting of 10 male and 10 female mice each weighing 19 to 21 g. For the determination of the intravenous toxicity the substances to be tested were dissolved in 10 ml/kg of body-weight of physiological saline and injected to the tail vein of CFLP mice during 1 minute. For evaluation of the oral toxicity the substances to be tested were dissolved in 10 ml/kg of body-weight of physiological saline and introduced to the stomach of OF-1 mice by using a rigid gastric tube. The perishing ratio of the animals was evaluated by 48 hours following the administration of the substance to be tested. The LD50 value, i.e. the dose causing the death of 50% of the animals was calculated by using the method of Litchfield and Wilcoxon. The therapeutic (safety) ratio was determined as the ratio of the LD50 value to ED50 value shown in the GYKI-20039-induced tremor test.

Data set [5] relates to mice. Kind of data set: Acute toxicity and therapeutic ratio on mice. It counts as in vivo. The settings on record: mice, i.v. and oral. The procedure: as §2, §3
The test system of data set [6] is GYKI-20039-induced tremor. The settings on record: mice; literature (Coward et al.; Andrasi et al.); cited from earlier work.
The mark [7] stands for this setting: iv, Table 3, read-out: Muscle relaxant effect, Tremor ED50 i.v.
Where [8] appears, read: iv, pretreatment time 0, Table 1, read-out: GYKI-20039 (tremor) ED50 i.v.
Setting [9] is: po, Table 3, read-out: Muscle relaxant effect, Tremor ED50 p.o.
Where [10] appears, read: po, pretreatment 10 minutes, Table 2, read-out: Tremor test ED50 p.o.
Where [11] appears, read: mice, i.p., 60 mg/kg morphine hydrochloride, Table 1.
Setting [12] is: 10 mg/kg i.v., time up to return to 75% of control.
[13] abbreviates: iv, CFLP mice, i.v., read-out: Acute toxicity LD50 i.v.
Where [14] appears, read: iv, i.v., read-out: Therapeutic ratio LD50/ED50 i.v.
Where [15] appears, read: po, OF-1 mice, p.o., read-out: Acute toxicity LD50 p.o.
[16] abbreviates: po, p.o., read-out: Therapeutic ratio LD50/ED50 p.o.

As a reminder, the ED50 is the dose at which the effect has come halfway, by size or by number of responders. What is called LD50 is the dose at which mortality reaches 50%. With `CCc1ccc(C(=O)C(C)CN2CCCCC2)cc1` (centres unmarked) [Eperisone, eperisone, reference compound], the median effective dose (ED50) in data set [1] (setting [7]) worked out at 7.8 mg/kg; in data set [1] (setting [8]), 7.8 mg/kg; in data set [1] (setting [9]), 126 mg/kg; in data set [1] (setting [10]), 126 mg/kg; in data set [2] (setting [11]), 63.6 mg/kg. Besides, the “Flexor reflex, duration of effect T75%” value in data set [3] (setting [12]) is recorded as 90 min. For the same molecule, the “Flexor reflex, T75%” value in data set [3] (25 mg/kg i.d.) was 60 min; in data set [3] (50 mg/kg i.d.), 190 min. Moreover, the “Flexor reflex, maximum inhibition” value in data set [3] (25 mg/kg i.d.) is 38.5%; in data set [3] (50 mg/kg i.d.) it was 74.8%. The LD50 at 48 h in data set [4] (setting [13]) was determined as 53.4 mg/kg; in data set [4] (setting [15]), 320 mg/kg. Besides, the selectivity ratio in data set [4] (setting [14]) stood at 6.8; in data set [4] (setting [16]), 2.5.
For the molecule `C[Si](C)(Cc1ccc(F)cc1)CN1CCCCC1.Cl` [Example 2, N-{[dimethyl-(4-fluorobenzyl)silyl]methyl}piperidine hydrochloride], the median effective dose (ED50) in data set [1] (setting [7]) amounted to 2.8 mg/kg; in data set [1] (setting [8]) it was 2.8 mg/kg; in data set [1] (setting [9]), 27.6 mg/kg; in data set [1] (setting [10]), 27.6 mg/kg; in data set [2], 21.8 mg/kg. Further, the “activity relative to eperisone” value in data set [1] (oral route) worked out at 5 times. The “activity relative to tolperisone” value in data set [1] (oral route) was determined as 10 times. Further, the “Flexor reflex, duration of effect T75%” value in data set [3] (setting [12]) is more than 180 min. Further, the results for the “Flexor reflex, T75%” value in data set [3] (12.5 mg/kg i.d.) and in data set [3] (25 mg/kg i.d.) were 230 min and more than 300 min, respectively. The results for the “Flexor reflex, maximum inhibition” value in data set [3] (12.5 mg/kg i.d.) and in data set [3] (25 mg/kg i.d.) were 44.8% and 82.1%, respectively. The “duration of effect compared with 4-fold doses of the reference drugs” value in data set [3] (i.d.) is given as “exceeded even the duration of effect of 4-fold doses of the reference drugs”. In data set [3] (i.d., vs tolperisone and eperisone), the “dose needed to achieve a given effect relative to the dose of the reference drugs” value is “half of the dose”. In addition, the LD50 at 48 h was determined as 25.5 mg/kg in data set [4] (setting [13]) and 228 mg/kg in data set [4] (setting [15]). Further, the values for the selectivity ratio in data set [4] (setting [14]) and in data set [4] (setting [16]) were 9.1 and 8.3, respectively. Also, in data set [5], the “therapeutic ratio in comparison to the reference drugs” value is on record as “significantly more advantageous”.
For `C[Si](C)(Cc1ccc(F)cc1)CN1CCCC1.Cl` [Example 10, N-{[dimethyl-(4-fluorobenzyl)silyl]methyl}-pyrrolidine hydrochloride], the results for the ED50 in data set [1] (setting [8]) and in data set [2] were 2.8 mg/kg and 22 mg/kg, respectively. The “Flexor reflex, duration of effect T75%” value in data set [3] (setting [12]) is more than 180 min.
Regarding `C[Si](C)(CCCN1CCCC1)Cc1ccc(F)cc1.Cl` [Example 11, N-{[dimethyl-(4-fluorobenzyl)silyl]propyl}pyrrolidine hydrochloride], the results for the median effective dose (ED50) in data set [1] (setting [8]) and in data set [2] were 3.8 mg/kg and 27.5 mg/kg, respectively. The “Flexor reflex, duration of effect T75%” value in data set [3] (setting [12]) is on record as more than 180 min.
For `C[Si](C)(CCCn1ccnc1)Cc1ccc(F)cc1.Cl` [Example 12, N-{[dimethyl-(4-fluorobenzyl)silyl]propyl}imidazole hydrochloride], the ED50 is 5.4 mg/kg in data set [1] (setting [8]) and 26.9 mg/kg in data set [2]. In addition, in data set [3] (10 mg/kg i.v.), the “inhibition of flexor reflex” value is 40%. Besides, in data set [3] (setting [12]), the “Flexor reflex, duration of effect T75%” value is on record as more than 180 min.
As to `C[Si](C)(CCCN1CCCCC1)Cc1ccccc1.Cl` [Example 19, N -[(benzyldimethylsilyl)propyl]piperidine hydrochloride], the median effective dose (ED50) in data set [1] (setting [8]) amounted to 3.6 mg/kg; in data set [2], 22.3 mg/kg. In data set [3] (setting [12]), the “Flexor reflex, duration of effect T75%” value is reported as more than 180 min.
For the molecule `Cc1ccc(C[Si](C)(C)N2CCCCC2)c(C)c1.Cl` [Example 34], the “GYKI-20039 (tremor) ED50 i.v.” value in data set [1] (i.v., pretreatment time 0, Table 1) is 8.7 mg/kg. Moreover, the “Straub's tail ED50 i.p.” value in data set [2] (setting [11]) came out at 30.7 mg/kg. Besides, in data set [3] (i.v., 5 mg/kg (footnote *)), the “Flexor reflex, duration of effect T75%” value amounted to 120 min and the “inhibition of flexor reflex” value is recorded as 53%.
Turning to `Cc1ccc(Cl)c(C[Si](C)(C)CN2CCCCC2)c1.Cl` [Example 35, N-{[(2-chloro-5-methylbenzyl)-dimethylsilyl]methyl}piperidine hydrochlorid], the 50% effective dose (ED50) in data set [1] (setting [8]) turned out to be 3.7 mg/kg; in data set [2], 25.9 mg/kg. In addition, the “Flexor reflex, duration of effect T75%” value in data set [3] (setting [12]) is more than 180 min.
As for `N=C1SCCN1c1c(Cl)cccc1Cl` [GYKI-20039, reference compound], the induction of tremor entry in data set [1] is recorded as “induces a tremor on mice”.
Turning to `Cl.N=C(Cc1c(Cl)cccc1Cl)NC(N)=O` [LON-954], the induction of tremor entry in data set [6] is given as “induces a tremor on mice”.
For `Cc1ccc(C(=O)C(C)CN2CCCCC2)cc1` (centres unmarked) [Tolperisone, tolperisone, reference compound], the ED50 in data set [1] (setting [7]) turned out to be 10.1 mg/kg; in data set [1] (setting [9]), 338 mg/kg; in data set [1] (setting [10]) it was 338 mg/kg; in data set [2] (setting [11]) it was 63 mg/kg. Besides, in data set [3] (setting [12]), the “Flexor reflex, duration of effect T75%” value came to 50 min. Also, the “Flexor reflex, T75%” value in data set [3] (25 mg/kg i.d.) was 60 min; in data set [3] (50 mg/kg i.d.) it was 140 min. Also, the “Flexor reflex, maximum inhibition” value in data set [3] (25 mg/kg i.d.) stood at 33.1%; in data set [3] (50 mg/kg i.d.) it was 76.6%. The LD50 at 48 h in data set [4] (setting [13]) came to 39.8 mg/kg; in data set [4] (setting [15]), 612 mg/kg. For the same molecule, the selectivity ratio came out at 3.9 in data set [4] (setting [14]) and 1.8 in data set [4] (setting [16]).
